Test results taken from patent US10597388B2, “Pyridazinone herbicides” (FMC CORPORATION, priority 2014, dated 2020).

What was measured:
Type in all cases: in vivo
corn (Zea mays) = assay: Test C greenhouse herbicide test, pre- and postemergence
Method in brief: (§1)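 Each species was treated both before emergence, in a loam–sand soil mix, and after emergence, as 1- to 4-leaf seedlings in peat-based potting medium. Plants stayed in the greenhouse 13 to 15 d, then were scored from 0 (no effect) to 100 (complete control) relative to controls.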

[1] = system: nutsedge, yellow (yellow nutsedge, Cyperus esculentus); assay: as above
Method in brief: as §1

[2] = system: crabgrass, large (large crabgrass, Digitaria sanguinalis); assay: as above
Method in brief: as §1

[3] = system: foxtail, giant (giant foxtail, Setaria faberii); assay: as above
Method in brief: as §1

[4] = system: pigweed (Amaranthus retroflexus); assay: as above
Method in brief: as §1

[5] = system: waterhemp (common waterhemp, Amaranthus rudis); assay: as above
Method in brief: as §1

[6] = system: johnsongrass (Sorghum halepense); assay: as above
Method in brief: as §1

soybean (Glycine max) = assay: as above
Method in brief: as §1

[7] = system: ryegrass, Italian (Italian ryegrass, Lolium multiflorum); assay: as above
Method in brief: as §1

[8] = system: ragweed (common ragweed, Ambrosia elatior); assay: as above
Method in brief: as §1

[9] = system: blackgrass (Alopecurus myosuroides); assay: as above
Method in brief: as §1

[10] = system: lambsquarters (Chenopodium album); assay: as above
Method in brief: as §1

[11] = system: oilseed rape (Brassica napus); assay: as above
Method in brief: as §1

[12] = system: morningglory (Ipomoea coccinea); assay: as above
Method in brief: as §1

[13] = system: wheat (winter wheat, Triticum aestivum); assay: as above
Method in brief: as §1

kochia (Kochia scoparia) = assay: Test C greenhouse herbicide test, postemergence; settings: for Plant response rating, Kochia: Postemergence
Method in brief: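 Ratings are visual scores from 0 (no effect) to 100 (complete control), made against controls 13–15 d after treatment. Postemergence sprays were applied in the greenhouse to plants 2–18 cm tall (1- to 4-leaf stage) in peat-moss/vermiculite potting medium.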

[14] = Postemergence, 31 g ai/ha, 0 to 100 scale (0 no effect, 100 complete control)
[15] = Postemergence, 125 g ai/ha, scale 0 to 100, 0 is no effect, 100 is complete control
[16] = Postemergence, 250 g ai/ha, scale 0 to 100, 0 no effect, 100 complete control, 13 to 15 d
[17] = Preemergence, 31 g ai/ha, scale 0 to 100, 0 is no effect, 100 is complete control
[18] = Preemergence, 62 g ai/ha, scale 0 to 100, 0 is no effect, 100 is complete control
[19] = Preemergence, 125 g ai/ha, scale 0 to 100, 0 is no effect, 100 is complete control
[20] = Preemergence, 250 g ai/ha, scale 0 to 100 (0 no effect, 100 complete control)
[21] = postemergence, 62 g ai/ha, scale 0 to 100, 0 no effect, 100 complete control

## CCOC(=O)Oc1c(C)nn(C)c(=O)c1-c1c(C)sc2ccc(C)cc12 [Compound 82]
Corn (Zea mays); [14]
  Corn plant response rating: 35
Corn (Zea mays); [15]
  Plant response rating, Corn: 10
Corn (Zea mays); [16]
  Plant response rating, Corn: 5
Corn (Zea mays); [17]
  Plant response rating, Corn: 0
Corn (Zea mays); [18]
  Plant response rating, Corn: 0
Corn (Zea mays); [19]
  Plant response rating, Corn: 20
Corn (Zea mays); [20]
  Corn plant response rating: 25
Corn (Zea mays); [21]
  Corn plant response rating: 30
[1]; [15]
  Plant response rating, Nutsedge, Yellow: 85
[1]; [16]
  Plant response rating, Nutsedge, Yellow: 85
[1]; [17]
  Plant response rating, Nutsedge, Yellow: 35
[1]; [18]
  Plant response rating, Nutsedge, Yellow: 60
[1]; [19]
  Plant response rating, Nutsedge, Yellow: 60
[1]; [20]
  Nutsedge, Yellow plant response rating: 90
[1]; [21]
  Nutsedge, Yellow plant response rating: 80
[2]; [15]
  Plant response rating, Crabgrass, Large: 20
[2]; [16]
  Plant response rating, Crabgrass, Large: 30
[2]; [17]
  Plant response rating, Crabgrass, Large: 25
[2]; [18]
  Plant response rating, Crabgrass, Large: 20
[2]; [19]
  Plant response rating, Crabgrass, Large: 70
[2]; [20]
  Crabgrass, Large plant response rating: 80
[2]; [21]
  Crabgrass, Large plant response rating: 20
[3]; [15]
  Plant response rating, Foxtail, Giant: 60
[3]; [16]
  Plant response rating, Foxtail, Giant: 80
[3]; [17]
  Plant response rating, Foxtail, Giant: 60
[3]; [18]
  Plant response rating, Foxtail, Giant: 85
[3]; [19]
  Plant response rating, Foxtail, Giant: 90
[3]; [20]
  Foxtail, Giant plant response rating: 100
[3]; [21]
  Foxtail, Giant plant response rating: 25
[4]; [15]
  Plant response rating, Pigweed: 90
[4]; [16]
  Plant response rating, Pigweed: 90
[4]; [17]
  Plant response rating, Pigweed: 95
[4]; [18]
  Plant response rating, Pigweed: 100
[4]; [19]
  Plant response rating, Pigweed: 100
[4]; [20]
  Pigweed plant response rating: 100
[4]; [21]
  Pigweed plant response rating: 90
[5]; [15]
  Plant response rating, Waterhemp: 90
[5]; [16]
  Plant response rating, Waterhemp: 98
[5]; [17]
  Plant response rating, Waterhemp: 100
[5]; [18]
  Plant response rating, Waterhemp: 100
[5]; [19]
  Plant response rating, Waterhemp: 100
[5]; [20]
  Waterhemp plant response rating: 100
[5]; [21]
  Waterhemp plant response rating: 98
[6]; [15]
  Plant response rating, Johnsongrass: 10
[6]; [16]
  Plant response rating, Johnsongrass: 10
[6]; [17]
  Plant response rating, Johnsongrass: 45
[6]; [18]
  Plant response rating, Johnsongrass: 65
[6]; [19]
  Plant response rating, Johnsongrass: 60
[6]; [20]
  Johnsongrass plant response rating: 40
[6]; [21]
  Johnsongrass plant response rating: 5
Soybean (Glycine max); [15]
  Plant response rating, Soybean: 5
Soybean (Glycine max); [16]
  Plant response rating, Soybean: 10
Soybean (Glycine max); [17]
  Plant response rating, Soybean: 0
Soybean (Glycine max); [18]
  Plant response rating, Soybean: 100
Soybean (Glycine max); [19]
  Plant response rating, Soybean: 0
Soybean (Glycine max); [20]
  Soybean plant response rating: 0
Soybean (Glycine max); [21]
  Soybean plant response rating: 10
[7]; [15]
  Plant response rating, Ryegrass, Italian: 85
[7]; [16]
  Plant response rating, Ryegrass, Italian: 85
[7]; [17]
  Plant response rating, Ryegrass, Italian: 80
[7]; [18]
  Plant response rating, Ryegrass, Italian: 85
[7]; [19]
  Plant response rating, Ryegrass, Italian: 85
[7]; [20]
  Ryegrass, Italian plant response rating: 90
[7]; [21]
  Ryegrass, Italian plant response rating: 85
[8]; [15]
  Plant response rating, Ragweed: 95
[8]; [16]
  Plant response rating, Ragweed: 95
[8]; [17]
  Plant response rating, Ragweed: 85
[8]; [18]
  Plant response rating, Ragweed: 90
[8]; [19]
  Plant response rating, Ragweed: 90
[8]; [20]
  Ragweed plant response rating: 95
[8]; [21]
  Ragweed plant response rating: 98
[9]; [14]
  Blackgrass plant response rating: 10
[9]; [15]
  Plant response rating, Blackgrass: 35
[9]; [16]
  Plant response rating, Blackgrass: 40
[9]; [17]
  Plant response rating, Blackgrass: 50
[9]; [18]
  Plant response rating, Blackgrass: 60
[9]; [19]
  Plant response rating, Blackgrass: 65
[9]; [20]
  Blackgrass plant response rating: 80
[9]; [21]
  Blackgrass plant response rating: 35
[10]; [15]
  Plant response rating, Lambsquarters: 98
[10]; [16]
  Plant response rating, Lambsquarters: 100
[10]; [17]
  Plant response rating, Lambsquarters: 85
[10]; [18]
  Plant response rating, Lambsquarters: 90
[10]; [19]
  Plant response rating, Lambsquarters: 98
[10]; [20]
  Lambsquarters plant response rating: 98
[10]; [21]
  Lambsquarters plant response rating: 98
[11]; [15]
  Plant response rating, Oilseed Rape: 50
[11]; [16]
  Plant response rating, Oilseed Rape: 75
[11]; [17]
  Plant response rating, Oilseed Rape: 0
[11]; [18]
  Plant response rating, Oilseed Rape: 0
[11]; [19]
  Plant response rating, Oilseed Rape: 0
[11]; [20]
  Oilseed Rape plant response rating: 85
[11]; [21]
  Oilseed Rape plant response rating: 40
[12]; [15]
  Plant response rating, Morningglory: 100
[12]; [16]
  Plant response rating, Morningglory: 100
[12]; [17]
  Plant response rating, Morningglory: 85
[12]; [18]
  Plant response rating, Morningglory: 90
[12]; [19]
  Plant response rating, Morningglory: 95
[12]; [20]
  Morningglory plant response rating: 95
[12]; [21]
  Morningglory plant response rating: 100
[13]; [15]
  Plant response rating, Wheat: 5
[13]; [16]
  Plant response rating, Wheat: 5
[13]; [17]
  Plant response rating, Wheat: 0
[13]; [18]
  Plant response rating, Wheat: 0
[13]; [19]
  Plant response rating, Wheat: 0
[13]; [20]
  Wheat plant response rating: 0
[13]; [21]
  Wheat plant response rating: 0
Kochia (Kochia scoparia); 125 g ai/ha, scale 0 to 100, 0 is no effect, 100 is complete control
  Plant response rating, Kochia: 90
Kochia (Kochia scoparia); 250 g ai/ha, scale 0 to 100, 0 no effect, 100 complete control, 13 to 15 d
  Plant response rating, Kochia: 90
Kochia (Kochia scoparia); [21]
  Kochia plant response rating: 90
